Results as given in ChEMBL document CHEMBL3217491, “Design, synthesis and biological evaluation of imidazopyridine/pyrimidine-chalcone derivatives as potential anticancer agents” (2010).
Active and inactive are the calls of the source. No cut-off for these calls is given here.

Tests used:
MCF7 [1] = assay: Cell cycle arrest in human MCF7 cells assessed as accumulation at G0/G1 phase at 4 uM after 24 hrs by propidium iodide staining-based flow cytometry (reference value: 64.04%); format: functional
MCF7 [2] = assay: Induction of apoptosis in human MCF7 cells expressing P21 promoter -145/+8 with luciferase gene assessed as upregulation of p21 protein expression at 4 uM by Western blot analysis relative to control; format: functional, cell-based
MCF7 [3] = assay: Cell cycle arrest in human MCF7 cells assessed as accumulation at G2/M phase at 4 uM after 24 hrs by propidium iodide staining-based flow cytometry (reference value: 15.79%); format: functional
MCF7 [4] = assay: Growth inhibition of human MCF7 cells assessed as cell viability at 4 uM after 24 hrs by MTT assay; format: functional, cell-based
MCF7 [5] = assay: Cell cycle arrest in human MCF7 cells assessed as accumulation at S phase at 4 uM after 24 hrs by propidium iodide staining-based flow cytometry (reference value: 20.17%); format: functional
TK-10 = assay: Growth inhibition of human TK10 cells after 48 hrs by SRB assay; format: functional; details: TK-10, 48 h
A498 = assay: Growth inhibition of human A498 cells after 48 hrs by SRB assay; format: functional; details: A498, 48 h
[6] = Growth inhibition of human HCC2998 cells after 48 hrs by SRB assay; format: functional; details: HCC 2998, 48 h
HT-29 = assay: Growth inhibition of human HT-29 cells after 48 hrs by SRB assay; format: functional; details: HT-29, 48 h
786-0 = assay: Growth inhibition of human 786-0 cells after 48 hrs by SRB assay; format: functional; details: 786-0, 48 h
SN12C = assay: Growth inhibition of human SN12C cells after 48 hrs by SRB assay; format: functional
[7] = Growth inhibition of human OVCAR8 cells after 48 hrs by SRB assay; format: functional; details: OVCAR-8, 48 h
[8] = Growth inhibition of human OVCAR4 cells after 48 hrs by SRB assay; format: functional; details: OVCAR-4, 48 h
SK-MEL-5 = assay: Growth inhibition of human SK-MEL-5 cells after 48 hrs by SRB assay; format: functional; details: SK-MEL-5, 48 h
T47D = assay: Growth inhibition of human T47D cells after 48 hrs by SRB assay; format: functional
[9] = Growth inhibition of human OVCAR5 cells after 48 hrs by SRB assay; format: functional; details: OVCAR-5, 48 h
SK-MEL-28 = assay: Growth inhibition of human SK-MEL-28 cells after 48 hrs by SRB assay; format: functional; details: SK-MEL-28, 48 h
K562 = assay: Growth inhibition of human K562 cells after 48 hrs by SRB assay; format: functional; details: K562, 48 h
U-251 = assay: Growth inhibition of human U251 cells after 48 hrs by SRB assay; format: functional; details: U-251, 48 h
[10] = Growth inhibition of human UACC257 cells after 48 hrs by SRB assay; format: functional; details: UACC-257, 48 h
[11] = Growth inhibition of human HCT15 cells after 48 hrs by SRB assay; format: functional; details: HCT-15, 48 h
ACHN = assay: Growth inhibition of human ACHN cells after 48 hrs by SRB assay; format: functional
SR = assay: Growth inhibition of human SR cells after 48 hrs by SRB assay; format: functional
[12] = Growth inhibition of human MOLT4 cells after 48 hrs by SRB assay; format: functional; details: MOLT-4, 48 h
MDA-MB-231 = assay: Growth inhibition of human MDA-MB-231 cells after 48 hrs by SRB assay; format: functional; details: MDA-MB-231, 48 h
[13] = Growth inhibition of human EKVX cells after 48 hrs by SRB assay; format: functional
SNB-19 = assay: Growth inhibition of human SNB19 cells after 48 hrs by SRB assay; format: functional; details: SNB-19, 48 h
HCT-116 = assay: Growth inhibition of human HCT116 cells after 48 hrs by SRB assay; format: functional; details: HCT-116, 48 h
SNB-75 = assay: Growth inhibition of human SNB75 cells after 48 hrs by SRB assay; format: functional; details: SNB-75, 48 h
IGROV-1 = assay: Growth inhibition of human IGROV1 cells after 48 hrs by SRB assay; format: functional; details: IGROV-1, 48 h
[14] = Growth inhibition of human Hs578T cells after 48 hrs by SRB assay; format: functional; details: Hs-578T
[15] = Growth inhibition of human LOXIMVI cells after 48 hrs by SRB assay; format: functional; details: LOX IMVI
SK-OV-3 = assay: Growth inhibition of human SKOV3 cells after 48 hrs by SRB assay; format: functional; details: SK-OV-3, 48 h
COLO 205 = assay: Growth inhibition of human COLO205 cells after 48 hrs by SRB assay; format: functional; details: COLO 205, 48 h
[16] = Growth inhibition of human NCI-ADR-RES cells after 48 hrs by SRB assay; format: functional
KM12 = assay: Growth inhibition of human KM12 cells after 48 hrs by SRB assay; format: functional; details: KM12, 48 h
CCRF-CEM = assay: Growth inhibition of human CCRF-CEM cells after 48 hrs by SRB assay; format: functional
[17] = Growth inhibition of human HOP92 cells after 48 hrs by SRB assay; format: functional; details: HOP-92, 48 h
MCF7 [18] = assay: Growth inhibition of human MCF7 cells after 48 hrs by SRB assay; format: functional; details: MCF7, 48 h
SF-268 = assay: Growth inhibition of human SF268 cells after 48 hrs by SRB assay; format: functional; details: SF-268, 48 h
A549 = assay: Growth inhibition of human A549 cells after 48 hrs by SRB assay; format: functional; details: A549, 48 h
[19] = Growth inhibition of human UO31 cells after 48 hrs by SRB assay; format: functional; details: UO-31, 48 h
M14 = assay: Growth inhibition of human M14 cells after 48 hrs by SRB assay; format: functional; details: M14, 48 h
[20] = Growth inhibition of human UACC62 cells after 48 hrs by SRB assay; format: functional; details: UACC-62, 48 h
[21] = Growth inhibition of human BT549 cells after 48 hrs by SRB assay; format: functional; details: BT-549, 48 h
HL-60(TB) = assay: Growth inhibition of human HL-60(TB) cells after 48 hrs by SRB assay; format: functional; details: HL-60, 48 h
DU-145 = assay: Growth inhibition of human DU145 cells after 48 hrs by SRB assay; format: functional; details: DU-145, 48 h
PC-3 = assay: Growth inhibition of human PC3 cells after 48 hrs by SRB assay; format: functional; details: PC-3, 48 h
SK-MEL-2 = assay: Growth inhibition of human SK-MEL-2 cells after 48 hrs by SRB assay; format: functional; details: SK-MEL-2, 48 h
[22] = Growth inhibition of human OVCAR3 cells after 48 hrs by SRB assay; format: functional; details: OVCAR-3, 48 h
NCI-H460 = assay: Growth inhibition of human NCI-H460 cells after 48 hrs by SRB assay; format: functional; details: NCI-H460, 48 h
NCI-H226 = assay: Growth inhibition of human NCI-H226 cells after 48 hrs by SRB assay; format: functional; details: NCI-H226, 48 h
[23] = Growth inhibition of human SF295 cells after 48 hrs by SRB assay; format: functional; details: SF-295, 48 h
NCI-H23 = assay: Growth inhibition of human NCI-H23 cells after 48 hrs by SRB assay; format: functional; details: NCI-H23, 48 h
NCI-H522 = assay: Growth inhibition of human NCI-H522 cells after 48 hrs by SRB assay; format: functional; details: NCI-H522, 48 h
MDA-MB-435 = assay: Growth inhibition of human MDA-MB-435 cells after 48 hrs by SRB assay; format: functional; details: MDA-MB-435, 48 h
[24] = Growth inhibition of human RXF393 cells after 48 hrs by SRB assay; format: functional; details: RXF 393, 48 h
NCI-H322M = assay: Growth inhibition of human NCI-H322M cells after 48 hrs by SRB assay; format: functional
[25] = Growth inhibition of human SF539 cells after 48 hrs by SRB assay; format: functional; details: SF-539, 48 h
Malme-3M = assay: Growth inhibition of human MALME-3M cells after 48 hrs by SRB assay; format: functional
HOP-62 = assay: Growth inhibition of human HOP62 cells after 48 hrs by SRB assay; format: functional; details: HOP-62, 48 h
MDA-MB-468 = assay: Growth inhibition of human MDA-MB-468 cells after 48 hrs by SRB assay; format: functional; details: MDA-MB-468, 48 h
SW-620 = assay: Growth inhibition of human SW620 cells after 48 hrs by SRB assay; format: functional; details: SW-620, 48 h
CAKI-1 = assay: Growth inhibition of human Caki1 cells after 48 hrs by SRB assay; format: functional; details: CAKI-1, 48 h
RPMI-8226 = assay: Growth inhibition of human RPMI8226 cells after 48 hrs by SRB assay; format: functional; details: RPMI-8226, 48 h

## COc1cccc2c1C(=O)c1c(O)c3c(c(O)c1C2=O)C[C@@](O)(C(=O)CO)C[C@@H]3O[C@H]1C[C@H](N)[C@H](O)[C@H](C)O1 [DOXORUBICIN]
MCF7 [1]
  Activity: 94.85%
MCF7 [2]
  Activity: Active
MCF7 [3]
  Activity: 1.15%
MCF7 [4]
  inhibition: Active
MCF7 [5]
  Activity: 4%

## COc1ccc(-c2nc3ccccn3c2/C=C/C(=O)c2cc(OC)c(OC)c(OC)c2)cc1
MCF7 [1]
  Activity: 85.55%
TK-10
  GI50: 4.16 µM
A498
  GI50: 10.4 µM
[6]
  GI50: 8.27 µM
HT-29
  GI50: 4.8 µM
786-0
  GI50: 3.9 µM
SN12C
  GI50: 11.4 µM
[7]
  GI50: 3.92 µM
[8]
  GI50: 5.72 µM
SK-MEL-5
  GI50: 2.72 µM
T47D
  GI50: 2.59 µM
[9]
  GI50: 9.33 µM
SK-MEL-28
  GI50: 7.1 µM
K562
  GI50: 13.1 µM
U-251
  GI50: 3 µM
[10]
  GI50: 5.85 µM
[11]
  GI50: 4.85 µM
ACHN
  GI50: 3.26 µM
SR
  GI50: 3.71 µM
[12]
  GI50: 32.9 µM
MDA-MB-231
  GI50: 5.22 µM
[13]
  GI50: 7.42 µM
SNB-19
  GI50: 25.2 µM
HCT-116
  GI50: 2.26 µM
SNB-75
  GI50: 5.49 µM
IGROV-1
  GI50: 8.86 µM
[14]
  GI50: 2.89 µM
[15]
  GI50: 6.05 µM
SK-OV-3
  GI50: 14.8 µM
COLO 205
  GI50: 3.5 µM
[16]
  GI50: 3.36 µM
KM12
  GI50: 4.99 µM
MCF7 [3]
  Activity: 2.8%
CCRF-CEM
  GI50: 18.8 µM
[17]
  GI50: 2.36 µM
MCF7 [18]
  GI50: 2.38 µM
SF-268
  GI50: 4 µM
A549
  GI50: 7.96 µM
[19]
  GI50: 1.31 µM
M14
  GI50: 9.8 µM
[20]
  GI50: 5.58 µM
[21]
  GI50: 3.27 µM
HL-60(TB)
  GI50: 34 µM
DU-145
  GI50: 7.21 µM
PC-3
  GI50: 19.8 µM
SK-MEL-2
  GI50: 4.95 µM
MCF7 [4]
  inhibition: Active
[22]
  GI50: 2.88 µM
NCI-H460
  GI50: 4.09 µM
NCI-H226
  GI50: 24.1 µM
[23]
  GI50: 15.2 µM
NCI-H23
  GI50: 3.41 µM
MCF7 [5]
  Activity: 11.65%
NCI-H522
  GI50: 3.12 µM
MDA-MB-435
  GI50: 5.76 µM
[24]
  GI50: 2.94 µM
NCI-H322M
  GI50: 4.63 µM
[25]
  GI50: 2.39 µM
Malme-3M
  GI50: 1.56 µM
HOP-62
  GI50: 3.62 µM
MDA-MB-468
  GI50: 11.9 µM
SW-620
  GI50: 4.16 µM
CAKI-1
  GI50: 8.33 µM
RPMI-8226
  GI50: 7.5 µM
